Results as given in ChEMBL document CHEMBL1201862, “PubChem BioAssay data set” (2004).
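Results reflect a 48-hour exposure of cells in 96-well plates to compound at five concentrations. Here, GI50 denotes the concentration required for 50% inhibition of growth.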 Calls of active or inactive are those of the source. Cut-off read from the data, not from the text of the source: active = GI50 up to about 1.1 µM and inactive = higher.

How the values were obtained:
Test in all cases: inhibition of tumour cell growth, NCI panel, 48 h
A498 = test system: A498
HCT-116 = test system: HCT-116
HL-60 = test system: HL-60
HOP-92 = test system: HOP-92
HT-29 = test system: HT-29
IGROV-1 = test system: IGROV-1
MDA-MB-231 = test system: MDA-MB-231
MDA-MB-435 = test system: MDA-MB-435
MOLT-4 = test system: MOLT-4
Malme-3M = test system: Malme-3M
NCI-H460 = test system: NCI-H460
OVCAR-4 = test system: OVCAR-4
OVCAR-5 = test system: OVCAR-5
RXF 393 = test system: RXF 393
SN12C = test system: SN12C
UACC-257 = test system: UACC-257
UACC-62 = test system: UACC-62
UO-31 = test system: UO-31
HCC 2998 = test system: HCC 2998

Structure (SMILES) | GI50 (A498) | GI50 (HCT-116) | GI50 (HL-60) | GI50 (HOP-92) | GI50 (HT-29) | GI50 (IGROV-1) | GI50 (MDA-MB-231) | GI50 (MDA-MB-435) | GI50 (MOLT-4) | GI50 (Malme-3M) | GI50 (NCI-H460) | GI50 (OVCAR-4) | GI50 (OVCAR-5) | GI50 (RXF 393) | GI50 (SN12C) | GI50 (UACC-257) | GI50 (UACC-62) | GI50 (UO-31) | GI50 (HCC 2998)
N#Cc1ccc(OC(=O)c2ccc(NC(=N)N)cc2)cc1.c1ccncc1 | > 100 µM (inactive) | 59.3 µM (inactive) | 60.1 µM (inactive) | 93.5 µM (inactive) | 53.7 µM (inactive) | > 100 µM (inactive) | > 100 µM (inactive) | 67.8 µM (inactive) | 38.5 µM (inactive) | > 100 µM (inactive) | > 100 µM (inactive) | > 100 µM (inactive) | > 100 µM (inactive) | > 100 µM (inactive) | 63.2 µM (inactive) | > 100 µM (inactive) | > 100 µM (inactive) | > 100 µM (inactive) | 
CCN(CC)C1Oc2cc3c(cc2C(c2cccc(OC)c2O)C1C)OCO3 (centres undefined) | 2.36 µM (inactive) | 4.28 µM (inactive) | 2.99 µM (inactive) |  | 4.16 µM (inactive) | 8.04 µM (inactive) | 10.5 µM (inactive) | 1.74 µM (inactive) | 3.68 µM (inactive) | 3.94 µM (inactive) | 4.24 µM (inactive) | 7.14 µM (inactive) | 13.8 µM (inactive) | 4.5 µM (inactive) | 4.6 µM (inactive) | 7.6 µM (inactive) | 5.24 µM (inactive) | 9.38 µM (inactive) | 12.4 µM (inactive)
COc1ccc(-[n+]2nc(S(=O)(=O)O)c(/C=C/c3ccc(N(C)C)cc3)cc2C#N)cc1 | > 100 µM (inactive) | > 100 µM (inactive) |  | > 100 µM (inactive) | > 100 µM (inactive) | > 100 µM (inactive) | > 100 µM (inactive) | > 100 µM (inactive) | > 100 µM (inactive) |  |  | > 100 µM (inactive) | > 100 µM (inactive) |  | > 100 µM (inactive) | > 100 µM (inactive) | > 100 µM (inactive) | > 100 µM (inactive) | > 100 µM (inactive)
CCOC(=O)c1ccc(C(=O)C(C(C)=O)C(=O)OC(C)(C)C)n1C (centres undefined) | > 100 µM (inactive) | > 100 µM (inactive) | 67.9 µM (inactive) |  | > 100 µM (inactive) | > 100 µM (inactive) | > 100 µM (inactive) | > 100 µM (inactive) | 67.5 µM (inactive) | > 100 µM (inactive) | > 100 µM (inactive) | > 100 µM (inactive) | > 100 µM (inactive) | > 100 µM (inactive) | > 100 µM (inactive) | > 100 µM (inactive) | > 100 µM (inactive) | > 100 µM (inactive) | > 100 µM (inactive)
CC(=O)Nc1ccc(Nc2nc(=O)[nH]c(=O)[nH]2)cc1 | > 100 µM (inactive) | > 100 µM (inactive) | > 100 µM (inactive) | > 100 µM (inactive) | > 100 µM (inactive) | > 100 µM (inactive) | > 100 µM (inactive) | > 100 µM (inactive) |  | > 100 µM (inactive) | > 100 µM (inactive) | > 100 µM (inactive) | > 100 µM (inactive) |  | > 100 µM (inactive) | > 100 µM (inactive) | > 100 µM (inactive) | 28.6 µM (inactive) | > 100 µM (inactive)
O=C1CC(=O)NC(NN2C(=O)/C(=C/C(=O)c3ccco3)N=C2c2ccccc2)=N1 | > 100 µM (inactive) | > 100 µM (inactive) |  | 24.8 µM (inactive) | > 100 µM (inactive) | 43.3 µM (inactive) | > 100 µM (inactive) | 63.7 µM (inactive) | 22.9 µM (inactive) | 7 µM (inactive) | 30.3 µM (inactive) | 31 µM (inactive) | > 100 µM (inactive) | 66.8 µM (inactive) | > 100 µM (inactive) | 92.3 µM (inactive) | 37.7 µM (inactive) | 57.8 µM (inactive) | > 100 µM (inactive)
O=C1c2ccccc2-c2c1c(-c1cccc(Br)c1)nc1ccc3ccccc3c21 | > 100 µM (inactive) | > 100 µM (inactive) |  |  | > 100 µM (inactive) |  | > 100 µM (inactive) | > 100 µM (inactive) | > 100 µM (inactive) | > 100 µM (inactive) | > 100 µM (inactive) | > 100 µM (inactive) | > 100 µM (inactive) | > 100 µM (inactive) | > 100 µM (inactive) | > 100 µM (inactive) | > 100 µM (inactive) | > 100 µM (inactive) | > 100 µM (inactive)
CCOC(=O)c1ccc2c(c1)Cc1cc([N+](=O)[O-])ccc1-2 | 28.4 µM (inactive) | 59.4 µM (inactive) | 76.2 µM (inactive) | 26.1 µM (inactive) | 27.1 µM (inactive) | 10.6 µM (inactive) | 32.3 µM (inactive) | 43.1 µM (inactive) | 20.1 µM (inactive) | > 100 µM (inactive) | 50.9 µM (inactive) | 15.7 µM (inactive) | 57.4 µM (inactive) | 22.9 µM (inactive) | 89.3 µM (inactive) | 48.1 µM (inactive) | 50 µM (inactive) | 30.4 µM (inactive) | 
COC(=O)Nc1nc2cc(S(=O)(=O)n3nnc4ccccc43)ccc2[nH]1 | 57 µM (inactive) | 53.8 µM (inactive) | 66.2 µM (inactive) | 14.5 µM (inactive) | > 100 µM (inactive) | 31.3 µM (inactive) | 43.5 µM (inactive) | > 100 µM (inactive) | > 100 µM (inactive) | 30.5 µM (inactive) | > 100 µM (inactive) | > 100 µM (inactive) | > 100 µM (inactive) | 14.6 µM (inactive) | > 100 µM (inactive) | 5.61 µM (inactive) | 41.5 µM (inactive) | > 100 µM (inactive) | 
Cc1cc(S(=O)(=O)NC2=NNC(C)CN2)c(S)cc1Cl (centres undefined) | 21.6 µM (inactive) | 38.4 µM (inactive) | > 100 µM (inactive) |  | 62.2 µM (inactive) | 23.9 µM (inactive) | 62.2 µM (inactive) | 32.2 µM (inactive) | 44.2 µM (inactive) | 16.7 µM (inactive) | 54.2 µM (inactive) | 44.1 µM (inactive) | 93.3 µM (inactive) | 50.9 µM (inactive) | 80.5 µM (inactive) | > 100 µM (inactive) | 51.2 µM (inactive) | 51.5 µM (inactive) | 37.3 µM (inactive)
COc1ccc(C(=O)/C=C/c2ccncc2)cc1OC | 17.1 µM (inactive) | 6.44 µM (inactive) | 2.04 µM (inactive) | 14.1 µM (inactive) | 8.93 µM (inactive) | 12.9 µM (inactive) | 12 µM (inactive) | 14.8 µM (inactive) | 8.32 µM (inactive) | 18.3 µM (inactive) |  | 11 µM (inactive) | 14.3 µM (inactive) | 12.6 µM (inactive) | 15.8 µM (inactive) | 12.9 µM (inactive) | 15.5 µM (inactive) | 14.9 µM (inactive) | 
COC(=O)C1C(OC(=O)c2ccccc2)CC2CCC1N2C(N)=O (centres undefined) | > 100 µM (inactive) | > 100 µM (inactive) | > 100 µM (inactive) | > 100 µM (inactive) | > 100 µM (inactive) | > 100 µM (inactive) | > 100 µM (inactive) | > 100 µM (inactive) | > 100 µM (inactive) | > 100 µM (inactive) | > 100 µM (inactive) | > 100 µM (inactive) | > 100 µM (inactive) |  | > 100 µM (inactive) | > 100 µM (inactive) | > 100 µM (inactive) | > 100 µM (inactive) | > 100 µM (inactive)
CCOC(=O)c1ccc(NCc2ccc3nc(OC)c(OC)nc3c2)cc1 | > 100 µM (inactive) | 92.3 µM (inactive) | 47.8 µM (inactive) | 58.3 µM (inactive) | > 100 µM (inactive) | > 100 µM (inactive) | 72.6 µM (inactive) | > 100 µM (inactive) | > 100 µM (inactive) | > 100 µM (inactive) | > 100 µM (inactive) | 88.7 µM (inactive) | > 100 µM (inactive) |  | > 100 µM (inactive) | > 100 µM (inactive) | > 100 µM (inactive) | > 100 µM (inactive) | > 100 µM (inactive)
C/C=C1\C(=O)OC2CCN3CCC(COC(=O)C(C)(O)C(C)C1O)C23 (centres undefined) | > 100 µM (inactive) | > 100 µM (inactive) | > 100 µM (inactive) | > 100 µM (inactive) | > 100 µM (inactive) | > 100 µM (inactive) | > 100 µM (inactive) | > 100 µM (inactive) | > 100 µM (inactive) | > 100 µM (inactive) | > 100 µM (inactive) | > 100 µM (inactive) | > 100 µM (inactive) |  | > 100 µM (inactive) | > 100 µM (inactive) | > 100 µM (inactive) | > 100 µM (inactive) | > 100 µM (inactive)
Cc1cc(C#N)c(Nc2c(C)cccc2[N+](=O)[O-])s1 | 66.7 µM (inactive) | 73.8 µM (inactive) |  | 24.3 µM (inactive) |  |  | 24.7 µM (inactive) | 61 µM (inactive) | 92 µM (inactive) | 40.2 µM (inactive) | 76.4 µM (inactive) | 57.4 µM (inactive) | 12.4 µM (inactive) | 16.4 µM (inactive) | > 100 µM (inactive) | 39.3 µM (inactive) | 37.9 µM (inactive) | > 100 µM (inactive) | 87.7 µM (inactive)
COc1cc2c(cc1OC(=O)c1cc3ccccc3[nH]1)N=C[C@@H]1CCCN1C2=O | 0.219 µM (active) | 0.41 µM (active) |  | 0.542 µM (active) | 0.185 µM (active) | 0.274 µM (active) | 0.418 µM (active) | 0.316 µM (active) | 0.18 µM (active) | 0.398 µM (active) | 0.344 µM (active) | 0.409 µM (active) | 0.255 µM (active) | 0.165 µM (active) | 0.221 µM (active) | 0.268 µM (active) | 0.269 µM (active) | 0.129 µM (active) | 0.269 µM (active)
